For 71 molecules, EC50, IC50 and outcome results are on record in PubChem BioAssay AID179 (DTP/NCI, 2004).

The source made the active and inactive calls.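 Rule for the calls: active = compounds giving half or more protection of infected cells from virus-caused growth loss, again on retest; inactive = the rest.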 A value given as a limit tells only on which side of the number the result lay.

The assay relates to CEM cells HIV-1 protection, formazan growth assay. Briefly: NCI AIDS Antiviral Assay. The following applies: for IC50: measured here: growth of uninfected CEM cells. Put shortly: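 Screen of anti-HIV-1 activity in human CEM cells using a formazan-based growth measurement at five drug concentrations. Hits with 50% or greater protection were repeated, and confirmation required reproducible complete protection.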

The term EC50 denotes the concentration at which the effect is half-maximal. For orientation: IC50 means the midpoint of a concentration-inhibition curve. High values mean lower potency, low ones higher potency. With `COc1c(Cl)cc(C(=CCC(=O)N[C@@H]2CC[C@@]3(C)[C@@H](CC[C@@H]4[C@@H]3CC[C@]3(C)[C@@H]([C@H](C)CCCC(C)C)CC[C@@H]43)C2)c2cc(Cl)c(OC)c(C(=O)O)c2)cc1C(=O)O`, the EC50 was greater than 200 µM and the IC50 worked out at 10.2 µM.
Take `CC1(C)O[C@]2(C)CC[C@@H]1[C@@H](O)[C@@H]2N1CCCCC1`: the EC50 was greater than 380 µM and the IC50 was greater than 380 µM.
With `Cc1c(C#N)c2ccccc2c2nc3ccccc3n12`, the EC50 was greater than 200 µM and the IC50 was determined as 129 µM.
For `CSc1n[nH]c(NC(=O)c2ccccc2Br)n1`, the EC50 was greater than 575 µM and the IC50 stood at 427 µM.
Consider `C/C=C(/C1CC2c3[nH]c4ccccc4c3CCN2C(=O)C1C(=O)OCC)[Si](C)(C)C` (stereo unspecified), for which the EC50 is greater than 8.91 µM and the 50% inhibitory concentration (IC50) was greater than 8.91 µM.
For `OCC1CC(F)C(n2cnc3c(F)ncnc32)O1` (stereo unspecified), the EC50 is greater than 49 µM and the IC50 stood at 36.3 µM.
Consider `Nc1ccc(C2c3ccccc3Oc3ccccc32)cc1`, for which the EC50 was greater than 200 µM and the IC50 came to 30.9 µM.
With `O=C1NC(N2CCCCC2)=N/C1=C\c1ccccc1O`, the EC50 was greater than 200 µM and the IC50 is 174 µM.
As for `COc1cccc2c(=O)c3c(O)c4cc(N(C)C)ccc4c(OC(C)=O)c3oc12`, the EC50 was greater than 200 µM and the IC50 worked out at 8.91 µM.
Take `CN1CCCC1c1cccnc1` (stereo unspecified): the EC50 was 77.6 µM and the IC50 is greater than 200 µM.
As for `CN(C)CCNc1ccc(NCC[N+](C)(C)Cc2ccc([N+](=O)[O-])cc2)c2c1C(=O)c1c(O)ccc(O)c1C2=O`, the EC50 is greater than 20 µM and the half-maximal inhibitory concentration (IC50) is 0.891 µM.
The matching figures for `CN1CCN(CCSSCCN2CCN(C)CC2)CC1`: greater than 200 µM and greater than 200 µM.
In the same order, the values of `Cc1ccc([N+](=O)[O-])cc1NC(=O)C(=O)Cc1cc(=O)oc2cc(O)ccc12` are greater than 468 µM and 363 µM.
In the same order, the values of `COC(=O)CCNc1c2ccccc2nc2cccc([N+](=O)[O-])c12` are greater than 0.2 µM and 0.0794 µM.
For the molecule `N#CNC(=NCC1CCCO1)Nc1cccnc1` (stereo unspecified), the EC50 was greater than 1020 µM and the half-inhibitory concentration (IC50) was 933 µM.
`O=C(Nc1ccc2c(O)cc(S(=O)(=O)O)cc2c1)Nc1ccc2c(O)c(N=Nc3ccc4cc(S(=O)(=O)O)ccc4c3)c(S(=O)(=O)O)cc2c1`: the outcome was active.
For `NC(Cc1ccc(B(O)O)cc1)C(=O)NC(CO)CO` (stereo unspecified), the EC50 is greater than 200 µM and the IC50 was greater than 200 µM.
`N#CC(C#N)N=Cc1ccncc1`: the EC50 was greater than 200 µM and the IC50 amounted to 170 µM.
As for `Clc1c2ncccc2cc2n[nH]nc12`, the EC50 was greater than 200 µM and the IC50 was greater than 100 µM.
As to `Cc1cc(NS(=O)(=O)c2ccc(N=c3c4ccccc4n(Cc4ccccc4)c4ccccc34)cc2)no1`, the result was inactive.
For `COC(=O)c1ccccc1C1CN=NC12Cc1c(C)ccc(C)c1C2=O` (stereo unspecified), the EC50 was greater than 200 µM and the IC50 was 155 µM.
Consider `O=C1NC(=O)/C(=C/c2ccc(S(=O)(=O)N/N=C/c3ccc(Cl)cc3)cc2)N1`, for which the EC50 is greater than 200 µM and the IC50 was determined as 123 µM.
The matching figures for `NC(CSS(=O)(=O)O)=NCCSS(=O)(=O)O`: greater than 200 µM and 110 µM.
Turning to `S=c1[nH]c(=S)c2cc(Sc3ccc4[nH]c(=S)[nH]c(=S)c4c3)ccc2[nH]1`, the EC50 is greater than 200 µM and the IC50 was greater than 200 µM.
As to `COc1ccccc1/C=C1\SC(=S)NC1=O`, the EC50 is greater than 200 µM and the IC50 came out at 107 µM.
On to `COC(=O)[C@H](C)NC(=O)[C@H](NS(=O)(=O)c1nc2ccccc2s1)c1ccccc1`, for which the EC50 was greater than 200 µM and the IC50 was found to be 37.2 µM.
As to `Cc1cc(S(=O)(=O)Nc2nc(N)nc3nc4ccccc4n23)c(S)cc1Cl`, the EC50 was 95.5 µM and the IC50 is 380 µM.
On to `CCOC(=O)C1=C(NC(C)(C)C)OCC1=O`, for which the outcome was inactive.
Take `C[C@@H]1C(N2CCCC2)=CC(=O)OC1c1ccccc1` (stereo partly specified): the EC50 is greater than 200 µM and the IC50 was greater than 200 µM.
Regarding `CC(=O)C1=C(C)N2C(=NC3=C(CCc4ccccc43)C2c2ccc(F)cc2)S1` (stereo unspecified), the EC50 was greater than 200 µM and the IC50 came to 178 µM.
`CSC1=C(C#N)C(=O)N(c2ccc(C)cc2)C(=S)C1C#N` (stereo unspecified): the EC50 is greater than 200 µM and the IC50 was determined as 174 µM.
Consider `Cc1cc2c(C(C)C)c(O)c(O)c(C=O)c2c(O)c1-c1c(C)cc2c(C(C)C)c(O)c(O)c(C=Nc3ccccc3SSc3ccccc3N)c2c1O`, for which the EC50 is greater than 200 µM and the IC50 was 24.5 µM.
Consider `Nc1ccccc1S(=O)(=O)c1ccccc1`, for which the result was active.
On to `COC(=O)C/C(C(=O)OC)=C1\CCC2=C1N1CCCC1C2(CC(=O)OC)C(=O)OC` (stereo unspecified), for which the EC50 is greater than 162 µM and the IC50 was greater than 162 µM.
As to `O=[N+]([O-])C(/C=N/Nc1ccccc1)/C=N/Nc1ccccc1`, the EC50 was greater than 24.5 µM and the IC50 is greater than 24.5 µM.
Consider `CC1(C)OC2C(O1)[C@H]1OC(C(Cl)(Cl)Cl)=N[C@H]1C(I)[C@H]2N1C(=O)c2ccccc2C1=O` (stereo partly specified), for which the EC50 is greater than 200 µM and the IC50 stood at 110 µM.
In the case of `COc1ccc(-c2sc(/N=C/c3cc(Br)cc(Br)c3O)c(C#N)c2C)cc1OC`, the outcome was inactive.
As for `CCCCNS(=O)(=O)c1ccc(-c2c3nc(c(-c4ccc(S(=O)(=O)NCCCC)cc4)c4ccc([nH]4)c(-c4ccc(S(=O)(=O)NCCCC)cc4)c4nc(c(-c5ccc(S(=O)(=O)NCCCC)cc5)c5ccc2[nH]5)C=C4)C=C3)cc1`, the EC50 was greater than 200 µM and the IC50 was greater than 200 µM.
`NC(=O)CNC(=O)c1ccccc1SC(=O)CCCC[n+]1ccccc1`: the EC50 is 1.74 µM and the IC50 is 178 µM.
Take `NCCCSCC(=O)O`: the outcome was inactive.
Consider `CC[C@@H](C)[C@H](NC(=O)[C@H](CCCCN)NC(=O)[C@H](CCCCN)NC(=O)[C@H](CC(C)C)NC(=O)[C@@H]1CCCN1C(=O)[C@@H]1CCCN1C(=O)[C@@H](NC(=O)[C@H](CC(C)C)NC(=O)[C@H](CCCCN)NC(=O)[C@H](CCCN=C(N)N)NC(=O)[C@@H](N)C(C)C)[C@@H](C)O)C(=O)O`, for which the result was inactive.
As for `Cc1cc(C#N)c(Nc2c(C)cccc2[N+](=O)[O-])s1`, the EC50 is greater than 200 µM and the IC50 is 158 µM.
As for `NC1=NN(c2ccccc2)C(=O)C1/C(=N\NC(=O)c1cc2ccccc2cc1O)C(=O)Nc1cccc(C(F)(F)F)c1` (stereo unspecified), the EC50 is greater than 6.61 µM and the IC50 is greater than 6.61 µM.
Consider `Clc1nc(Nc2nc3ccccc3[nH]2)nc(Cl)c1Cc1ccccc1`, for which the outcome was inactive.
As to `CCC(=O)C1(N2CCOCC2)CCN(CCCC(=O)c2ccc(F)cc2)CC1`, the EC50 is greater than 200 µM and the half-inhibitory concentration (IC50) was greater than 200 µM.
In the case of `COC(=O)C1(C(=O)OC)N=C(C)OC1/C=C/c1ccccc1` (stereo unspecified), the EC50 was greater than 200 µM and the IC50 is greater than 100 µM.
On to `CC(C)(C)OC(=O)C1/C(=C/CBr)CN1C(=O)OC(C)(C)C` (stereo unspecified), for which the EC50 was greater than 200 µM and the IC50 was 3.98 µM.
For `COC(=O)c1cc(C(c2cc(C(=O)OC)c(OC)c(Br)c2C)C(Cl)Cl)c(C)c(Br)c1OC`, the EC50 is greater than 200 µM and the IC50 was 10 µM.
Turning to `OC(Cn1cncn1)(Cn1cncn1)c1ccc(Cl)cc1Cl`, the EC50 was greater than 741 µM and the IC50 is 490 µM.
In the same order, the values of `N=c1oc2ccc(Cl)cc2cc1C(=O)Nc1ccccc1` are greater than 151 µM and 21.9 µM.
The matching figures for `NC(=O)n1cnc(N)n1`: greater than 200 µM and greater than 200 µM.
Consider `c1cc(-c2cscc2-c2ccsc2)cs1`, for which the EC50 was greater than 200 µM and the IC50 is 110 µM.
`CCOC(=O)c1ccc(NC(=O)O/N=C(/Cl)CC)cc1`: the outcome was inactive.
Turning to `O=C(O)CC[n+]1ccccc1`, the EC50 was greater than 200 µM and the IC50 was greater than 200 µM.
As to `C=C(CN(C)C)C(=O)c1ccccc1[N+](=O)[O-]`, the EC50 is greater than 200 µM and the IC50 came to 10.7 µM.
Consider `COc1ccccc1-n1c(=S)n(-c2ccccc2C)c2nc3ccccc3nc1/c2=N\Nc1ccccn1`, for which the EC50 is greater than 200 µM and the IC50 was greater than 200 µM.
`CC(C)N1CSC(=S)N(Cc2ccccc2)C1`: the EC50 was greater than 37.2 µM and the IC50 came to 32.4 µM.
`O[C@H]1[C@H](O)[C@@H](O)CN2CC[C@H](O)[C@H]12`: the EC50 was 204 µM and the IC50 stood at 1260 µM.
`O=[N+]([O-])c1ccc(N2CCOS(=O)OCC2)cc1`: the EC50 was greater than 200 µM and the IC50 is greater than 200 µM.
Take `CN1CCOC1(C)CO` (stereo unspecified): the EC50 is greater than 200 µM and the IC50 was greater than 200 µM.
As for `O=C1C=CC(=O)c2c1ccc1c3ccccc3n(Cc3ccc([N+](=O)[O-])cc3)c21`, the EC50 was greater than 200 µM and the IC50 worked out at 2.82 µM.
With `COc1ccc(/C(C)=N/NC(N)=S)cc1OC`, the result was inactive.
As to `Cc1ccc2c(c1)C(=O)C1(C2)Cc2c(C)cccc2C1=O` (stereo unspecified), the EC50 was greater than 200 µM and the 50% inhibitory concentration (IC50) was greater than 200 µM.
Regarding `Cc1ccc([N+](=O)[O-])c2c(NCCCN(C)C)c3ccccc3nc12`, the EC50 is greater than 0.2 µM and the 50% inhibitory concentration (IC50) amounted to 0.0513 µM.
With `Cc1ccc(-n2cc(-c3ccc(Cl)cc3)c3c(N/N=C4\SCC(=O)N4C)ncnc32)cc1`, the EC50 is greater than 200 µM and the IC50 was found to be 8.32 µM.
For `Nc1nc(=O)n(C2OC(CO)CC2F)cc1F` (stereo unspecified), the EC50 is 55 µM and the 50% inhibitory concentration (IC50) worked out at 575 µM.
With `CCOC(=O)C(=O)Nc1c(C)cccc1C(C)C`, the EC50 is greater than 1000 µM and the IC50 was greater than 1000 µM.
As for `CCCCCCN(N)C(=O)CC#N`, the EC50 was greater than 39.8 µM and the 50% inhibitory concentration (IC50) is greater than 39.8 µM.
Take `O=c1[nH]c(=O)n(C2CC(O)C(CO)O2)cc1C#Cc1ccc(F)cc1` (stereo unspecified): the EC50 is greater than 724 µM and the half-inhibitory concentration (IC50) was greater than 724 µM.
Regarding `N#Cc1ccccc1NC(=O)C(=O)C1NC(=S)NC1=O` (stereo unspecified), the result was inactive.
`CCNCC(=O)O[C@]1(CC)C(=O)OCc2c1cc1n(c2=O)Cc2cc3ccccc3nc2-1`: the EC50 was greater than 10 µM and the IC50 was determined as 0.0708 µM.
